{
  "source": "patent US20240196889A1",
  "about": "“USE OF DI- AND TRI[…] ACIDS IN THE PREVENTION OF BIOFILM FORMATION” (priority 2020, published 2024)",
  "key": {"Salmonella biofilms": {"system": "Salmonella biofilms", "experiment": "Tolerance assay of mature biofilms (H2O2 or ciprofloxacin, CFU)", "format": "cell-based", "settings": "grown 48 h with 100 μM", "method": "It is well established that biofilms can be extremely tolerant to treatment with antimicrobials. To test whether the preventive addition of agaric acid renders Salmonella biofilms more susceptible to treatment with common disinfectants or antibiotics, biofilms grown in the presence and absence of agaric acid for 48 hour were treated for 1 h with 0.25% H2O2 or 1 μM ciprofloxacin. Hydrogen peroxide is a commonly used disinfectant in food industry [Meireles et al. (2016) Food Research International 82, 71-85; Meireles et al. (2016) Food Research International 82, 71-85], whereas ciprofloxacin is a fluoroquinolone antibiotic frequently used to treat Salmonella infections [Tabak et al. (2009) FEMS microbiology letters 301, 69-76].\nTo determine the tolerance of mature biofilms, biofilms were grown on microscopy glasses (75 mm×25 mm) placed vertical in a 50 ml falcon filled with 30 ml TSB 1/20. This set-up allows for easy transfer of mature biofilms as the top of vertical slide sticks out of the medium which allows to grab the slide with a pincer without damaging the biofilm. ONC of Salmonella were normalized to an OD600 of 3.2 and diluted 1/100 into the broth containing either a final concentration of 100 μM agaric or the corresponding amount of DMSO. […] The number of colony forming units (CFU) of biofilms was determined by plating."}, "[1]": {"system": "S. Typhimurium ATCC 14028", "experiment": "Petri dish biofilm assay (CFU)", "format": "cell-based, Salmonella enterica serovar Typhimurium", "settings": "100 μM, 48 h, 25° C.", "method": "ONCs of S. Typhimurium ATCC 14028 were normalized to an OD595 of 3.2 and diluted 1/100 in a small (60 mm Ø) glass Petri dishes containing 10 ml of 1/20 TSB to which a final concentration of 100 μM agaric or the corresponding amount of DMSO was added. Around 12*10^7 ml^−1 cells were inoculated and incubated under static conditions at 25° C. for 48 h. Afterwards, the liquid above the biofilms was poured off and the biofilms were scraped off the bottom of the plate in 1 ml of PBS, passed through a syringe (25 G) and vortexed to break down the biofilm structure and ensure an homogenous suspension during dilution [Hermans et al. (2011). Journal of microbiological methods 84, 467-478]. The number of colony forming units (CFU) of biofilms was determined by plating."}, "E. coli TG1": {"system": "E. coli TG1", "experiment": "Antibiofilm assay (Calgary biofilm device)", "format": "cell-based, Escherichia coli", "method": "A static peg assay for the prevention of bacterial biofilm formation was used as described previously. A lid carrying 96 polystyrene pegs was fitted into a microtiter plate with a peg hanging into each well. Two-fold serial dilutions of the compounds in 100 μl liquid broth per well were prepared in the microtiter plate. Subsequently, an overnight culture was diluted 1:100 into the respective liquid broth, and 100 μl (˜10^6 cells) was added to each well of the microtiter plate, resulting in a total amount of 200 μl medium per well. After placing the lid on the microtiter plate, samples containing Salmonella, Pseudomonas or E. coli were incubated statically in TSB 1/20 for 48 h at 25° C., whereas S. aureus was incubated in undiluted TSB at 37° C. for 48 h. After incubation, the lid was removed from the microtiter plate and liquid culture was transferred to a new microtiter plate prior to determining the prior to determining the planktonic growth in each well via OD600 measurements using a Synergy MX multimode reader (Biotek, Winooski, VT). The pegs were washed once in 200 μl PBS and the remaining attached bacteria were stained for 30 min with 200 μl 0.1% crystal violet in an isopropanol-methanol-PBS solution (1:1:18). […] The OD570 of each well was measured using a Synergy MX multimode reader. Data was analysed using the GraphPad Prism 6 software."}},
  "data": [
    {"smiles": "CCCCCCCCCCCCCCCCC(C(=O)O)C(O)(CC(=O)O)C(=O)O", "note": "(centres unmarked) [Agaric acid, 2-hydroxynonadecane-1,2,3-tricarboxylic acid]", "values": [
      {"measurement": "susceptibility of biofilms to ciprofloxacin", "setting": "Salmonella biofilms; then 1 μM ciprofloxacin for 1 h", "value": "further increased the effect of a ciprofloxacin treatment, albeit not significantly"},
      {"measurement": "susceptibility of biofilms to H2O2", "setting": "Salmonella biofilms; then 0.25% H2O2 for 1 h", "value": "significantly more susceptible to hydrogen peroxide"},
      {"measurement": "number of cells (CFU) attaching to bottom of glass petri dish", "setting": "[1]", "value": "significantly inhibits the number of Salmonella cells attaching to the surface"},
      {"measurement": "planktonic growth (OD600)", "setting": "E. coli TG1", "value": "unaffected, except for an increase at the highest concentration"},
      {"measurement": "concentration at which significant biofilm inhibition already occurred", "setting": "E. coli TG1; crystal violet staining", "value": 12.5, "unit": "µM"}
    ]}
  ]
}
